Reference: US20230140670A1, “FORMULATIONS” (Intellia Therapeutics, Inc., priority 2017, published 2023)

System: TTR
Assay: Liver editing in mice by NGS (percent editing)
Assay type: in vivo, mouse
Details: CD-1 mice; 0.1 mg per kg; 7 days post dose; FIG. 7F-7G
Experimental: CD-1 female mice, ranging from 6 to 10 weeks of age were used in each study. Animals were weighed and grouped according to body weight for preparing dosing solutions based on group average weight. LNPs were dosed via the lateral tail vein in a volume of 0.2 mL per animal (approximately 10 mL per kilogram body weight). […] Body weight was measured at twenty-four hours post-administration, and animals were euthanized at various time points by exsanguination via cardiac puncture under isoflurane anesthesia. Blood was collected into serum separator tubes or into tubes containing buffered sodium citrate for plasma as described herein. […]
In brief, to quantitatively determine the efficiency of editing at the target location in the genome, genomic DNA was isolated and deep sequencing was utilized to identify the presence of insertions and deletions introduced by gene editing.
PCR primers were designed around the target site (e.g., TTR), and the genomic area of interest was amplified. […] The reads were aligned to the […] after eliminating those having low quality scores. The resulting files containing the reads were mapped to the reference genome (BAM files), where reads that overlapped the target region of interest were selected and the number of wild type reads versus the number of reads which contain an insertion, substitution, or deletion was calculated. […]

SMILES: CCCCC/C=C\C/C=C\CCCCCCCC(=O)OCC(COC(=O)CCC(OCCCCCCCC)OCCCCCCCC)COC(=O)OCCCN(CC)CC (stereo not shown) [Lipid A, (9Z,12Z)-3-((4,4-bis(octyloxy)butanoyl)oxy)-2-((((3-(diethylamino)propoxy)carbonyl)oxy)methyl) propyl octadeca-9,12-dienoate]
- potency (TTR knockdown and liver editing): highest potency
